Assay results published in ChEMBL document CHEMBL4706619, “Synthesis and identification of a novel derivative of salidroside as a selective, competitive inhibitor of monoamine oxidase B with enhanced neuroprotective properties” (Eur J Med Chem, 2021).
Activity calls are given as the source filed them. The calls are words filed in the database; no cut-off is given here.

Experiments:
[1] = test system: PC-12; assay: Neuroprotective activity against CoCl2-induced cytotoxicity in rat PC12 cells assessed as increase in cell viability pretreated with CoCl2 for 8 hrs followed by incubation with drug and measured after 24 hrs by MTT assay; type: functional, cell-based
[2] = molecular target: T1, Amine oxidase [flavin-containing] B (Homo sapiens, UniProt P27338); assay: (§1) Inhibition of human recombinant MAO-B expressed in baculovirus infected BTI cells assessed as inhibition of 4-hydroxyquinoline formation using kynuramine as substrate preincubated with enzyme for 10 mins followed by addition of substrate and measured after 15 mins by fluorescence spectrophotometry relative to control; conditions: 0.25 h, time 25 min, read-out: Imax
T1 sequence (P27338 whole entry): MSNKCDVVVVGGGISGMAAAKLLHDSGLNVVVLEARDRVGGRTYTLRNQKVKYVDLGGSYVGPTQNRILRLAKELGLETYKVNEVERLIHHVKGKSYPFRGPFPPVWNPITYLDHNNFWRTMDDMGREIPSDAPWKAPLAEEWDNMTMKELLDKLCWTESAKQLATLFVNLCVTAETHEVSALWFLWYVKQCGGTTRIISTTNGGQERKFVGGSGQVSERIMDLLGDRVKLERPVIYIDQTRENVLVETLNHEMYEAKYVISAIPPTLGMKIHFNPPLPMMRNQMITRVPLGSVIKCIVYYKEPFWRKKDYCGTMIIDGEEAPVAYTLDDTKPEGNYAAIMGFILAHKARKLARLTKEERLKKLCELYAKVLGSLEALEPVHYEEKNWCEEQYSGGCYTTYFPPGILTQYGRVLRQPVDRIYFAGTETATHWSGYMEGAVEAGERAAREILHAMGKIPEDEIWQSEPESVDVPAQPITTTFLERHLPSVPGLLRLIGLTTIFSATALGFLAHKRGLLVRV

[3] = test system: PC-12; assay: Neuroprotective activity against CoCl2-induced cytotoxicity in rat PC12 cells assessed as increase in cell viability at 1 uM pretreated with CoCl2 for 8 hrs followed by incubation with drug and measured after 24 hrs by MTT assay; type: functional, cell-based
[4] = molecular target: T1, Amine oxidase [flavin-containing] B; assay: as §1, with “Competitive inhibition” for “Inhibition”, “using varying concentration of” for “using”, “Lineweaver-Burk plot analysis” for “fluorescence spectrophotometry relative to control”
[5] = n-Octanol/saturated water patition coefficient, logP of the compound at 0.05 mg/ml incubated for 24 hrs by HPLC analysis; type: physicochemical
[6] = test system: PC-12; assay: Neuroprotective activity against CoCl2-induced cytotoxicity in rat PC12 cells assessed as increase in cell viability pretreated with CoCl2 for 8 hrs followed by incubation with drug and measured after 24 hrs by MTT assay relative to control; type: functional
[7] = molecular target: T1, Amine oxidase [flavin-containing] B; assay: Inhibition of human recombinant MAO-B expressed in baculovirus infected BTI cells assessed as inhibition of 4-hydroxyquinoline formation using kynuramine as substrate preincubated with enzyme for 10 mins followed by addition of substrate and measured after 15 mins by fluorescence spectrophotometry
[8] = test system: Rattus norvegicus; assay: Ex vivo inhibition of MAO activity in infarcted cerebral hemisphere of middle cerebral artery occlusion-induced ischemia-reperfusion injury Sprague-Dawley rat model assessed as inhibition of 4-hydroxyquinoline formation using kynuramine as substrate at 25 mg/kg/day, ip for 2 days by fluorescence spectrophotometry; type: functional, organism-based; conditions: time 2.0 day
[9] = test system: Rattus norvegicus; assay: Inhibition of mitochondrial pathway of apoptosis in damaged cerebral hemisphere of middle cerebral artery occlusion-induced ischemia-reperfusion injury Sprague-Dawley rat model assessed as decrease in complement C3 protein expression at 25 mg/kg/day, ip administered for 2 days by western blot analysis; type: functional, organism-based; conditions: time 2.0 day
[10] = test system: Rattus norvegicus; assay: Inhibition of mitochondrial pathway of apoptosis in damaged cerebral hemisphere of middle cerebral artery occlusion-induced ischemia-reperfusion injury Sprague-Dawley rat model assessed as increase in NeuN protein expression at 25 mg/kg/day, ip administered for 2 days by western blot analysis; type: functional, organism-based; conditions: time 2.0 day
[11] = test system: Rattus norvegicus; assay: Inhibition of mitochondrial pathway of apoptosis in damaged cerebral hemisphere of middle cerebral artery occlusion-induced ischemia-reperfusion injury Sprague-Dawley rat model assessed as increase in ratio of Bcl-2 to Bax at 25 mg/kg/day, ip administered for 2 days by western blot analysis; type: functional, organism-based; conditions: time 2.0 day
[12] = test system: Rattus norvegicus; assay: Neuroprotective activity against middle cerebral artery occlusion-induced ischemia-reperfusion injury Sprague-Dawley rat model assessed as decrease in neurological deficit score administered ip for 2 days; type: functional, organism-based; conditions: dose 12.5-50 mg/kg/day, time 2.0 day
[13] = test system: Rattus norvegicus; assay: Neuroprotective activity against middle cerebral artery occlusion-induced ischemia-reperfusion injury Sprague-Dawley rat model assessed as decrease in cerebral infarct volume at 12.5 to 50 mg/kg/day, ip administered for 2 days by magnetic resonance imaging analysis; type: functional, organism-based; conditions: dose 12.5-50 mg/kg/day, time 2.0 day

Compound | Activity [3] | also measured
OC[C@H]1O[C@@H](OCCc2ccc(O)cc2)[C@H](O)[C@@H](O)[C@@H]1O [SALIDROSIDE] | Active | EC50 [1]: 300 nM; Emax [2]: 52%; Ki [4]: 920 nM; logP ([5]; octanol/water, 24 h): -0.89; Emax [6]: 27%; IC50 [7]: 810 nM
CC(=O)OC[C@H]1O[C@@H](OCCc2ccc(O)cc2)[C@H](O)[C@@H](O)[C@@H]1O | inactive | –
O=C(Oc1ccc(CCO[C@@H]2O[C@H](CO)[C@@H](O)[C@H](O)[C@H]2O)cc1)c1cccc(CCl)c1 | inactive | –
O=C(Oc1ccc(CCO[C@@H]2O[C@H](CO)[C@@H](O)[C@H](O)[C@H]2O)cc1)c1ccc(Cl)c(Cl)c1 | inactive | –
Cc1ccccc1C(=O)Oc1ccc(CCO[C@@H]2O[C@H](CO)[C@@H](O)[C@H](O)[C@H]2O)cc1 | Active | –
C=CC(=O)Oc1ccc(CCO[C@@H]2O[C@H](CO)[C@@H](O)[C@H](O)[C@H]2O)cc1 | Active | –
Cc1ccc(C(=O)Oc2ccc(CCO[C@@H]3O[C@H](CO)[C@@H](O)[C@H](O)[C@H]3O)cc2)cc1 | Active | –
O=C(Oc1ccc(CCO[C@@H]2O[C@H](CO)[C@@H](O)[C@H](O)[C@H]2O)cc1)c1cccc(Cl)c1 | inactive | –
OCCc1ccc(O)cc1 | inactive | –
COc1ccc(C(=O)Oc2ccc(CCO[C@@H]3O[C@H](CO)[C@@H](O)[C@H](O)[C@H]3O)cc2)cc1 | Active | –
CCCCCCC(=O)Oc1ccc(CCO[C@@H]2O[C@H](CO)[C@@H](O)[C@H](O)[C@H]2O)cc1 | Active | –
O=C(Oc1ccc(CCO[C@@H]2O[C@H](CO)[C@@H](O)[C@H](O)[C@H]2O)cc1)c1ccc2ccccc2c1 | inactive | –
CC(=O)Oc1ccc(CCO[C@@H]2O[C@H](CO)[C@@H](O)[C@H](O)[C@H]2O)cc1 | Active | –
O=C(Oc1ccc(CCO[C@@H]2O[C@H](CO)[C@@H](O)[C@H](O)[C@H]2O)cc1)c1ccc(CCl)cc1 | inactive | –
O=C(OC[C@H]1O[C@@H](OCCc2ccc(O)cc2)[C@H](O)[C@@H](O)[C@@H]1O)c1ccccc1 | inactive | –
O=S(=O)(Oc1ccc(CCO[C@@H]2O[C@H](CO)[C@@H](O)[C@H](O)[C@H]2O)cc1)c1ccccc1 | inactive | –
CCCc1ccc(C(=O)Oc2ccc(CCO[C@@H]3O[C@H](CO)[C@@H](O)[C@H](O)[C@H]3O)cc2)cc1 | Active | –
OC[C@H]1O[C@@H](O)[C@H](O)[C@@H](O)[C@@H]1O | inactive | –
O=C(Oc1ccc(CCO[C@@H]2O[C@H](CO)[C@@H](O)[C@H](O)[C@H]2O)cc1)c1c(Cl)cccc1Cl | inactive | –
O=C(Oc1ccc(CCO[C@@H]2O[C@H](CO)[C@@H](O)[C@H](O)[C@H]2O)cc1)c1ccc(C(F)(F)F)cc1 | Active | –
O=C(Oc1ccc(CCO[C@@H]2O[C@H](CO)[C@@H](O)[C@H](O)[C@H]2O)cc1)c1cccc(Cl)c1Cl | inactive | –
O=C(Oc1ccc(CCO[C@@H]2O[C@H](CO)[C@@H](O)[C@H](O)[C@H]2O)cc1)C1CCCCC1 | Active | –
CCc1ccc(C(=O)Oc2ccc(CCO[C@@H]3O[C@H](CO)[C@@H](O)[C@H](O)[C@H]3O)cc2)cc1 | Active | –
O=C(/C=C/c1ccccc1)Oc1ccc(CCO[C@@H]2O[C@H](CO)[C@@H](O)[C@H](O)[C@H]2O)cc1 | Active | –
O=C(Oc1ccc(CCO[C@@H]2O[C@H](CO)[C@@H](O)[C@H](O)[C@H]2O)cc1)c1ccccc1 | Active | inhibition [8]: Active; EC50 [1]: 38 nM; inhibition [9]: Active; Emax [2]: 73.6%; inhibition [10]: Active; Ki [4]: 41 nM; inhibition [11]: Active; Activity [12]: Dose-dependent effect; logP at 24 h ([5]; n-octanol/saturated water): 1.44; Emax [6]: 42%; Activity [13]: Active; IC50 [7]: 80 nM
C/C=C/C(=O)Oc1ccc(CCO[C@@H]2O[C@H](CO)[C@@H](O)[C@H](O)[C@H]2O)cc1 | Active | –
OC[C@H]1O[C@H](OCCc2ccc(O)cc2)[C@H](O)[C@@H](O)[C@@H]1O | inactive | –
Cc1cccc(C(=O)Oc2ccc(CCO[C@@H]3O[C@H](CO)[C@@H](O)[C@H](O)[C@H]3O)cc2)c1 | Active | –
O=C(Oc1ccc(CCO[C@@H]2O[C@H](CO)[C@@H](O)[C@H](O)[C@H]2O)cc1)c1cccc(F)c1 | Active | –
CC(=O)OC[C@H]1O[C@@H](OCCc2ccc(O)cc2)[C@H](O)[C@@H](OC(C)=O)[C@@H]1O | inactive | –
